Reference: article PMC11649784, “Re-design and evaluation of diclofenac-based carborane-substituted prodrugs and their anti-cancer potential” (Scientific Reports, 2024)

Experiments:
[1] = tested on: HT29 cells; assay: Crystal violet (CV) viability assay, HT29; assay type: cell-based, human; settings: 72 h, mean±SD; read-out: IC50 [μM] (n = 3) HT29 CV
Experimental: (§1) In a preliminary test, the stability of all compounds dissolved in the cell medium (c = 100 μM, T = [drawing 47] ) for 72 h was validated by HPLC (see Supporting Information). Cell lines were incubated with the respective compounds in a concentration range of 1.56–100 μM for 72 h, and cell viability was measured using 3-(4,5-dimethylthiazol-2-yl)-2,5-diphenyltetrazolium bromide (MTT) and crystal violet (CV) assays. […] As MTT tests gave inconsistent results, possibly due to interference of the compound with mitochondrial respiration, for the further evaluation only the CV results are considered[97],[98].
(§2) The biological study was performed on a murine colon adenocarcinoma cell line (MC38), two human colorectal carcinoma cell lines (HCT116 and HT29), and a human fetal lung fibroblast cell line (MRC-5). All cell lines are commercially available and were obtained from the American Type Culture Collection (ATCC). The human cell lines were kept in HEPES-buffered RPMI-1640 medium supplemented with 10 [drawing 141] heat-inactivated FCS, 2 mM L-glutamine, 0.01 [drawing 142] sodium pyruvate, penicillin (100 units mL^−1), and, streptomycin ( [drawing 143] mL^-1). The MC38 cell line was maintained in DMEM medium additionally supplemented with 1 [drawing 144] non-essential amino acids. Cells were grown at [drawing 145] in a humidified atmosphere with 5 [drawing 146] [drawing 147] . Peritoneal exudate cells (PECs) were isolated from healthy C57BL/6 mice (males, n = 3, 3 months old, weight 22–25 g) by performing an ice-cold PBS peritoneal lavage. Mice were sacrificed by cervical dislocation. Cells were cultivated for 4 h when nonadherent population was removed by washing in PBS, and additionally cultivated overnight in HEPES-buffered RPMI-1640 medium supplemented with 5 [drawing 148] heat-inactivated FCS before treatment with experimental drugs. Animal handling and protocol for isolation of PECs were performed according to European Union rules, and the ARRIVE guidelines 2.0.
(§3) For the viability tests, MC38, HCT116, and HT29 cells were seeded in 96-well plates at a density of 2 [drawing 149] 103, 5 [drawing 150] 103, and 6 [drawing 151] 10^3 cells/well, respectively. To determine whether the drug affected the viability of healthy, non-malignant cells, MRC-5 and PECs were seeded in 96-well plates at a density of 8 [drawing 152] 103 and 2 [drawing 153] 10^5 cells/well, respectively. For the flow cytometric analyses, MC38 cells were seeded in 6-well plates at 5 [drawing 154] 10^4 cells/well. For morphological assessment of nuclei and the detection of autophagy, MC38 cells were seeded in 2-well chamber slides at 1.5 [drawing 155] 10^4 cells/well.
(§4) After 72 h, cell viability was determined using MTT and CV tests. First, the supernatant from the wells was discarded and the cells were incubated with an MTT solution (0.5 mg mL^−1). After half an hour, the purple formazan crystals formed were dissolved in DMSO. For CV staining of the cells, the cells were fixed with 4 [drawing 157] PFA for 10 min and then stained with a 0.02 [drawing 158] CV solution for 15 min, all at room temperature (RT). The cells were then washed with tap water, air-dried and the dye was dissolved in 33 [drawing 159] acetic acid. For both viability tests, the absorbance of the developed colors was measured using an automated microplate reader at 570 nm with a reference wavelength of 670 nm. The results were expressed as a percentage of the control values of the untreated cells, which were arbitrarily set at 100 [drawing 160] . IC50 values, defined as 50 [drawing 161] inhibitory concentration, were calculated using a four-parameter logistic function and presented as mean±SD. All biological experiments were performed in triplicates. To evaluate the nature of the detected autophagy, a combined treatment with compound 3 and the autophagy inhibitors chloroquine (Chlq) and 3-methyladenine (3-MA) was carried out. […] After 72 h, cell viability was determined by CV assay.

[2] = tested on: MC38 cells; assay: Acridine orange staining for autophagosomes; assay type: cell-based, murine; settings: IC50 concentration, 72 h
Experimental: For morphological assessment of cell nuclei, MC38 cells were seeded overnight in 2-well chamber slides and then treated with the IC50 concentration of compound 3 for 72 h. At the end of the incubation period, cells were fixed with 4 [drawing 168] PFA for 15 min at RT. Staining of cells was performed with PI solution (0.1 [drawing 169] Triton X-100, 0.5 M EDTA pH 8, 50 μg mL^− 1 RNase, and 50 [drawing 170] mL^− 1 PI - final concentrations in PBS) for 1–2 min at RT. After washing in PBS, the cells were mounted in a fluorescence microscopy medium (Fluoromount- [drawing 171] , eBioscience, San Diego, CA, USA). The slides were analyzed with a ZeissAxio Observer Z1 inverted fluorescence microscope (Carl Zeiss AG, Oberkochen, Germany) at 400 [drawing 172] magnification. For the detection of autophagosomes, AO staining of cells seeded in 2-well chamber slides was applied. […] The dye was then removed, the cells were rinsed with PBS and immediately evaluated via fluorescence microscopy at 400 [drawing 175] magnification using the Leica DM4 B microscope equipped with a DFC7000 T camera (Leica Microsystems CMS GmbH, Wetzlar, Germany).

[3] = tested on: HT29 cells; assay: MTT viability assay, HT29; assay type: cell-based, human; settings: 72 h, mean±SD; read-out: IC50 [μM] (n = 3) HT29 MTT
Experimental: as §1, §2, §3, §4

[4] = tested on: peritoneal exudate cells (PECs); assay: Viability of peritoneal exudate cells; assay type: cell-based, mice; settings: column head not given
Experimental: as §2, with “Animal handling and protocol for isolation of PECs were performed according to European Union rules, and the ARRIVE guidelines 2.0.” left out
After 72 h, cell viability was determined using MTT and CV tests. […] For both viability tests, the absorbance of the developed colors was measured using an automated microplate reader at 570 nm with a reference wavelength of 670 nm. The results were expressed as a percentage of the control values of the untreated cells, which were arbitrarily set at 100 [drawing 160] . IC50 values, defined as 50 [drawing 161] inhibitory concentration, were calculated using a four-parameter logistic function and presented as mean±SD. […] To evaluate the nature of the detected autophagy, a combined treatment with compound 3 and the autophagy inhibitors chloroquine (Chlq) and 3-methyladenine (3-MA) was carried out. […] After 72 h, cell viability was determined by CV assay.

[5] = tested on: MC38 cells; assay: DHR 123 ROS/RNS production, flow cytometry; assay type: cell-based, murine; settings: IC50 concentration, 72 h
Experimental: (§5) For all flow cytometric analyses, MC38 cells were seeded overnight and then treated with the IC50 concentration of compound 3 for 72 h. The cells were harvested, washed, and stained according to the manufacturer’s instructions for each method. To determine whether the compound induces apoptosis, cells were double stained with AnnV-FITC and PI (15 μg mL^–1) for 15 min at RT in the dark. To detect caspase activity, cells were stained with the FITC-conjugated caspase inhibitor ApoStat for 30 min at [drawing 162] . To detect cell proliferation, MC38 cells were stained with CFSE (1 μM) for 10 min at [drawing 163] prior to seeding and then treated as previously described. To detect intracellular production of Reactive oxygen/nitrogen Species (ROS/RNS), MC38 cells were prestained with DHR 123 (1 [drawing 164] M) for 20 min at [drawing 165] , then seeded and exposed to an IC50 concentration of compound 3. After 72 h incubation, all samples were washed, resuspended in PBS and fluorescence intensity was analyzed using a CytoFLEX [drawing 166] flow cytometer (Beckman Coulter, Pasadena, CA, USA), while the data obtained was evaluated using the [drawing 167] software program.

[6] = tested on: MC38 cells; assay: MTT viability assay, MC38; assay type: cell-based, murine; settings: 72 h, mean±SD; read-out: IC50 [μM] (n = 3) MC38 MTT
Experimental: as §1, §2, §3, §4

[7] = tested on: MC38 cells; assay: CFSE cell proliferation, flow cytometry; assay type: cell-based, murine; settings: IC50 concentration, 72 h
Experimental: as §5

Substance: 1-[2-(7,8-dicarba-nido-undecaborate)]- [drawing 126] H-indolium-2-amine [compound 3]
- IC50 [1]: 17.6 ± 0.3 µM
- autophagosomes in the cytoplasm (acridine orange) [2]: intensified presence of autophagosomes
- IC50 [3]: 17 ± 1.6 µM
- Selectivity index (IC50 value of primary vs. cancer cells), PEC, second cancer cell line column ([4]; presumably HCT116): 2.17
- Selectivity index (IC50 value of primary vs. cancer cells), PEC, third cancer cell line column ([4]; presumably HT29): 1.42
- Selectivity index (IC50 value of primary vs. cancer cells), PEC, first cancer cell line column ([4]; presumably MC38): 2.63
- production of ROS/RNS (DHR 123) [5]: strongly depleted
- IC50 [6]: 7.9 ± 0.2 µM
- CFSE mean fluorescence intensity (undivided cell fraction) [7]: significantly higher in comparison to controls
